Activity calls are given as the source filed them. The rule behind the calls is not given here.
Legend:
[1] = target: Sonic hedgehog protein (Mus musculus) (UniProt Q62226); assay: Activation of Shh in mouse Shh Light2 cells assessed as […] at 10 uM after 30 hrs by luciferase reporter gene assay in presence of 1000 to 10000 nM 3-keto-N-aminoethyl-N'-aminocaproyldihydrocinnamoyl cyclopamine; format: functional, cell-based; settings: Shh Light II
[2] = target: Sonic hedgehog protein (Mus musculus) (UniProt Q62226); assay: Activation of Shh in mouse Shh Light2 cells assessed as […] at 1 uM after 30 hrs by luciferase reporter gene assay in presence of 1000 to 10000 nM 3-keto-N-aminoethyl-N'-aminocaproyldihydrocinnamoyl cyclopamine; format: functional, cell-based; settings: Shh Light II
[3] = target: Sonic hedgehog protein (Mus musculus) (UniProt Q62226); assay: Activation of Shh in ptch1 gene-deficient MEF assessed as beta-galactosidase activity after 30 hrs by chemiluminescence assay in presence of 100 nM 3-keto-N-aminoethyl-N'-aminocaproyldihydrocinnamoyl cyclopamine
[4] = target: Sonic hedgehog protein (Mus musculus) (UniProt Q62226); assay: Activation of Shh in smo-expressing MEF at 0.5 uM after 30 hrs by luciferase reporter assay
[5] = target: Sonic hedgehog protein (Mus musculus) (UniProt Q62226); assay: Activation of Shh in smo gene-deficient MEF at 0.5 uM after 30 hrs by luciferase reporter assay
[6] = target: Sonic hedgehog protein (Mus musculus) (UniProt Q62226); assay: Activation of Shh in mouse Shh Light2 cells assessed as […] after 30 hrs by luciferase reporter gene assay in presence of 100 nM 3-keto-N-aminoethyl-N'-aminocaproyldihydrocinnamoyl cyclopamine; format: functional, cell-based; settings: Shh Light II
[7] = target: T1, Protein smoothened (Homo sapiens, UniProt Q99835); settings: HEK-293T; 5 uM
T1 sequence (Q99835 whole entry): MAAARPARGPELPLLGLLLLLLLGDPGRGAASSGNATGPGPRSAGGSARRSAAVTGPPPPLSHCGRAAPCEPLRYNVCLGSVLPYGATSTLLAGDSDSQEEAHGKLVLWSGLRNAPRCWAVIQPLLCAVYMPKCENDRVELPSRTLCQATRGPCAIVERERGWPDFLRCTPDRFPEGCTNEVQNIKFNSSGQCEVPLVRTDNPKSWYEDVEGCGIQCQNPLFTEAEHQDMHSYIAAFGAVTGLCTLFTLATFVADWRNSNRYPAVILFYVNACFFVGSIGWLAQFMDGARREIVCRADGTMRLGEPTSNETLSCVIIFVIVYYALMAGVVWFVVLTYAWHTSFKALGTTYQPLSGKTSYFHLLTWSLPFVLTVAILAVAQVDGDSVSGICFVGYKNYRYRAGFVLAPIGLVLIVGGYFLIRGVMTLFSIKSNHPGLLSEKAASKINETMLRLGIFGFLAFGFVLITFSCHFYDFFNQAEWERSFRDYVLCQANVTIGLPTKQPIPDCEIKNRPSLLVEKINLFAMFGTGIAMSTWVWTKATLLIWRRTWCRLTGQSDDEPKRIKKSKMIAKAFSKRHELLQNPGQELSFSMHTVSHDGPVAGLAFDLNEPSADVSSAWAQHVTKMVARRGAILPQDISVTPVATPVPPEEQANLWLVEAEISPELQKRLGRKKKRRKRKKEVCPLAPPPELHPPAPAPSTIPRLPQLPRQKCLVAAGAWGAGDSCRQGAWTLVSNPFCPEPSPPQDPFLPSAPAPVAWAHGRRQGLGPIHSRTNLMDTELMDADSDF
Description: Inhibition of BODIPY-cyclopamine binding to Smo N-terminal cysteine domain expressed in HEK293T cells at 5 uM after 4 hrs by fluorescence microscopy

[8] = target: T1, Protein smoothened; settings: HEK-293T; 5 uM; remark: listed apart in the source
Description: Inhibition of BODIPY-cyclopamine binding to Smo C-terminal cytoplasmic domain expressed in HEK293T cells at 5 uM after 4 hrs by fluorescence microscopy

[9] = target: T1, Protein smoothened; assay: Inhibition of BODIPY-cyclopamine binding to Smo expressed in HEK293T cells after 1 hr by fluorescence microscopy

Question: Which Activity [1] does the source give for CC1=C2C[C@H]3[C@@H](CC=C4CC(=O)CC[C@@]43C)[C@@H]2CC[C@]12O[C@@H]1C[C@H](C)CN(CCNC(=O)CCCCCNC(=O)CCc3ccccc3)[C@H]1[C@H]2C here?
Answer: The Activity was “Active”.

Question: And the Activity [2]?
Answer: Its Activity is “Active”.

Question: CN[C@H]1CC[C@H](N(Cc2cccc(-c3ccncc3)c2)C(=O)c2sc3ccccc3c2Cl)CC1 was tested. Which Activity [3] did it give?
Answer: Its Activity is “Active”.

Question: How did the Activity [3] turn out when CC1=C2C[C@H]3[C@@H](CC=C4C[C@@H](O)CC[C@@]43C)[C@@H]2CC[C@]12O[C@@H]1C[C@H](C)CN[C@H]1[C@H]2C was run?
Answer: Its Activity is “Active”.

Question: Which results are given for c1ccc2c(Oc3nc(Nc4ccc(N5CCOCC5)cc4)c4ncn(C5CCCCC5)c4n3)cccc2c1 [PURMORPHAMINE]?
Answer: Activity [4]: Active; Activity [5]: inactive; Activity [6]: Active; Activity [3]: Active; inhibition [7]: Active; inhibition [8]: Active; IC50 [9]: 1500 nM

Reference: ChEMBL document CHEMBL1221175, “Purmorphamine activates the Hedgehog pathway by targeting Smoothened” (Nat Chem Biol, 2006)
